Two compounds from ChEMBL document CHEMBL1155434, “Discovery of a new series of 5-HT1A receptor agonists” (Bioorg Med Chem Lett, 2010) can be followed below.

The species entered for one experiment is Homo sapiens. As to the kind of experiment: Selectivity ratio of pKi for human 5-HT1A receptor to pKi for human alpha1 adrenergic receptor.
Experiment [1] addresses T1, 5-hydroxytryptamine receptor 1A (Homo sapiens) (UniProt P08908).
T1 sequence (whole entry): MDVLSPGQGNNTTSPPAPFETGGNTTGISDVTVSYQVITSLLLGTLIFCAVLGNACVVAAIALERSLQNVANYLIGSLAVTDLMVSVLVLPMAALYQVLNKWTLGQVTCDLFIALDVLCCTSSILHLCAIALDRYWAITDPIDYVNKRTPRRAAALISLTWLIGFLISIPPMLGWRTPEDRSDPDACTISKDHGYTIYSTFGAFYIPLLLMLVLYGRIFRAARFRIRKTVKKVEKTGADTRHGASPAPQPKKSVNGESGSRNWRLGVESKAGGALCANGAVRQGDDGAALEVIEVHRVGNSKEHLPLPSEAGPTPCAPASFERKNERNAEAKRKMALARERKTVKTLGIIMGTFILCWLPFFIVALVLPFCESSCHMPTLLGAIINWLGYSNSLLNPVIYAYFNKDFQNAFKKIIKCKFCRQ
Nature of the experiment: Agonist activity at human recombinant 5HT1A receptor expressed in human HeLa cells by [35S]GTPgammaS binding assay relative to serotonin. Type of experiment: functional, cell-based. (In general: Binding of GTPγS marks nucleotide exchange on a G protein.)

The target in experiment [2] is T2, Alpha-1A adrenergic receptor (Homo sapiens, UniProt P35348).
T2 sequence (P35348 whole entry): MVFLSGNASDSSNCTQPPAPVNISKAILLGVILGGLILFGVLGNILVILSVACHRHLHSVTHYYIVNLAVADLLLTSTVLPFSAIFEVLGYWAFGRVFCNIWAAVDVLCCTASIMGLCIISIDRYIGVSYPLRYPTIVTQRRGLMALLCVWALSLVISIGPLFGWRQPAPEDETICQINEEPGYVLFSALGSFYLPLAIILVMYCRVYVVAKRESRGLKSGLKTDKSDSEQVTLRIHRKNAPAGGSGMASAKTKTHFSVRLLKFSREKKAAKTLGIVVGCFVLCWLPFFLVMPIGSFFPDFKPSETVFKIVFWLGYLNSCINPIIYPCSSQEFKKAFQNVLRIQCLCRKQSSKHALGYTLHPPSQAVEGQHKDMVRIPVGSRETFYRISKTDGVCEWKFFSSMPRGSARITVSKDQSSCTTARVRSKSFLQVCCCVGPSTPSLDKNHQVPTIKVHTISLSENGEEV
Nature of the experiment: Displacement of [3H]prazosin from human alpha1A adrenergic receptor expressed in CHO cells. Format: cell-based.

In experiment [3] the target is T1, 5-hydroxytryptamine receptor 1A (Homo sapiens). As to the kind of experiment: Agonist activity at human recombinant 5HT1A receptor expressed in human HeLa cells by [35S]GTPgammaS binding assay. Type of experiment: functional, cell-based.
Experiment [4] deals with T3, Alpha-1B adrenergic receptor (Homo sapiens, UniProt P35368).
T3 sequence (P35368 whole entry): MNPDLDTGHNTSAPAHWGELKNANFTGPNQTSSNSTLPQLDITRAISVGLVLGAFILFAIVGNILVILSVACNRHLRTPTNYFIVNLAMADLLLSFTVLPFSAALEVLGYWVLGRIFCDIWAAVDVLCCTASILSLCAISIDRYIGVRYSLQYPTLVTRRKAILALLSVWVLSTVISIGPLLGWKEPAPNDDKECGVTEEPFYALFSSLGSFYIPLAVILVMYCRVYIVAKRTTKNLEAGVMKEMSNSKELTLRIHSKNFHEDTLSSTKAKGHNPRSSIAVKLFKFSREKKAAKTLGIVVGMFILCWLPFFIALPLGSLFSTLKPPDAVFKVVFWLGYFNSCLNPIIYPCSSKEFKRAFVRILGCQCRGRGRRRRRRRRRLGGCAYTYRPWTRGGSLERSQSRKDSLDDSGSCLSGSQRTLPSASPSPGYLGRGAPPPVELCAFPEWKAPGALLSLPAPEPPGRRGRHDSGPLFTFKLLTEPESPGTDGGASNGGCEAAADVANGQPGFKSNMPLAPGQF
As to the kind of experiment: Displacement of [3H]prazosin from human Alpha-1B adrenergic receptor expressed in CHO cells. Type of experiment: cell-based.

For a further experiment, the system named is Spleen. As to the kind of experiment: Inhibition of noradrenaline-induced contraction in rat spleen. Type of experiment: functional.
Experiment [5] has as its target T4, Alpha-1D adrenergic receptor (Homo sapiens, UniProt P25100).
T4 sequence (P25100 whole entry): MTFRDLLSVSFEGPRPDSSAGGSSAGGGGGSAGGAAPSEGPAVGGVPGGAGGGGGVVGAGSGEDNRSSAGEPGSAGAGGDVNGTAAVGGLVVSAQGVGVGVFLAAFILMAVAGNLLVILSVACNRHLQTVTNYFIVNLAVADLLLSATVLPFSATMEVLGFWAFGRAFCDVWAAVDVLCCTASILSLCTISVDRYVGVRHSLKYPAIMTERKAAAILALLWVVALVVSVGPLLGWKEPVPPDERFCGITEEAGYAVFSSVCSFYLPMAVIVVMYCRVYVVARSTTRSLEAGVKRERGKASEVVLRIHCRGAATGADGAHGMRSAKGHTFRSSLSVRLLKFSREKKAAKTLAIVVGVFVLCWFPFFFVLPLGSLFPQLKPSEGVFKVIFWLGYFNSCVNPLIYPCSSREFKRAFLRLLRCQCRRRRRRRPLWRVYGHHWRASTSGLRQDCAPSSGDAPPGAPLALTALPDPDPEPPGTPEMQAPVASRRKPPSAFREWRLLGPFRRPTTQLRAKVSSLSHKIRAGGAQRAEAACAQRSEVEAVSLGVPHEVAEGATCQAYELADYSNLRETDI
Nature of the experiment: Displacement of [3H]prazosin from human Alpha-1D adrenergic receptor expressed in CHO cells. Type of experiment: cell-based.

Another experiment concerns Vas deferens. Nature of the experiment: Inhibition of noradrenaline-induced contraction in rat prostatic vas deferens. Type of experiment: functional.
Experiment [6] concerns the target T5, 5-hydroxytryptamine receptor 1A (Homo sapiens, UniProt P08908).
T5 sequence (P08908 whole entry): T1 sequence (whole entry)
As to the kind of experiment: Displacement of [3H]8-OH-DPAT from human 5-HT1A receptor expressed in human HeLa cells. Type of experiment: cell-based. A general note: Loss of bound radioactivity is the signal in a displacement assay; it reports binding, not function.

In the next experiment the test system is Thoracic aorta. Nature of the experiment: Inhibition of noradrenaline-induced contraction in rat thoracic aorta. Type of experiment: functional.

On to `COc1ccccc1OCCNCC1CSC(c2ccccc2)(c2ccccc2)O1` (racemic), for which the Ratio pKi in the experiment filed under Homo sapiens was found to be 6. The Emax in experiment [1] came to 76%. For the same compound, the Ki in [2] was 20.9 nM; in experiment [4], 100 nM; in experiment [5], 6.61 nM; in [6] it was 1.02 nM. In experiment [3], the pD2 is 8.94. Further, the results for the pKb in the experiment with Spleen, with Vas deferens and in the experiment with Thoracic aorta were 8.44, 6.71 and 8.68, respectively.

In the case of `COc1ccccc1OCCNCC1CSC(c2ccccc2)(c2ccccc2)S1` (racemic), the Ratio pKi in the experiment listed under Homo sapiens turned out to be 158. Moreover, in experiment [1], the Emax came out at 20%. For the same compound, the Ki in experiment [2] is 35.5 nM; in [4] it was 117 nM; in [5] it was 20.4 nM; in experiment [6], 0.129 nM. Moreover, the pD2 in experiment [3] is 7.76. For the same compound, the pKb in the experiment on Spleen is listed as 5.87; in the experiment on Vas deferens, 5.8; in the experiment on Thoracic aorta, 7.5.

Usually Emax stands for the size of the effect at its maximum, as opposed to the concentration needed. As a reminder, the Ki is the equilibrium dissociation constant of an inhibitor or competing ligand from its target. Lower therefore signals higher affinity. Broadly, the pKb is −log10 of the Kb, conventionally taken in molar units.
